Data reported in patent publication US11149031B2, “Substituted N-(3-fluoropropyl)-pyrrolidine compounds, processes for their preparation and therapeutic uses thereof” (SANOFI, priority 2016, dated 2021).
Read-outs that look alike come from different tables or passages of the source.

What was measured:
[1] = system: MCF7 cells expressing mutant estrogen receptor Asp 538 Gly; assay: Test B: cell proliferation/viability assay (CellTiter-Glo) on MCF7 Asp 538 Gly mutant; type: cell-based; conditions: Homo sapiens, MCF7, 168 h, MCF7 cells expressing ER Asp 538 Gly mutant, 7 days of compound exposure, read-out: proliferation MCF7 D538G IC50
Text: (§1) Test B: Cell Proliferation/Viability Assay on MCF7 (Breast Tumor Cells) WT and Mutants Cell Lines
(§2) Test B involves measuring the in vitro proliferation activity of the compounds of the invention by analyzing the viability of the tumor cells.
(§3) The measurements of the viability were made using a breast cancer cell viability assay as described hereunder.
(§4) MCF7 cells expressing (and dependent) on mutants estrogen receptor Tyr 537 Ser or Asp 538 Gly were generated by transfection of MCF7 parental cells (ATCC) with expression vectors coding for different mutants of estrogen receptor Tyr 537 Ser or Asp 538 Gly. The cells were first selected by antibiotic (related to vector expression) and then selected for their growth dependence on estrogen receptor based on their ability to grow in vitro in absence of estradiol (parental cell line die in absence of estradiol).
(§5) MCF7 cells (ATCC) or MCF7 cells expressing (and dependent) on mutants estrogen receptor Tyr 537 Ser or Asp 538 Gly were seeded in 384 wells microplate at concentration of >999 cells/30 μL per well in red phenol free MEM medium containing 5% charcoal dextran striped FBS. The following day, 9 points serial 1:5 dilution of each compound were added to the cells in 20 μL at final concentrations ranging from 3-0.000001 μM. After 7 days of compound exposure, 50 μL of CellTiter-Glo (promega) was added to the cells and relative luminescence arbitrary units (RLUs) were determined in luminescence plate reader (Envision device). CellTiter-Glo was added to 50 μL medium without cells to determine the background signal.
(§6) The percent of viability of each sample was determined as follows: (RLU sample−RLU background/RLU untreated−RLU background)*100=% viability.

[2] = system: MCF7 cells expressing mutant estrogen receptor Tyr 537 Ser; assay: Test B: cell proliferation/viability assay (CellTiter-Glo) on MCF7 Tyr 537 Ser mutant; type: cell-based; conditions: Homo sapiens, MCF7, 168 h, MCF7 cells expressing ER Tyr 537 Ser mutant, 7 days of compound exposure, read-out: proliferation MCF7 Y537S IC50
Text: as §1, §2, §3, §4, §5, §6

[3] = molecular target: ERα in MCF7 cells (Homo sapiens (Human), UniProt P03372); assay: Test C: estrogen receptor degradation activity, ERα in cell western assay in MCF7 cells; type: cell-based; conditions: for DC50: 4 hours post compound addition, ERα in cell western, read-out: Degradation IC50; for % Degradation at 3 μM: 4 hours, relative to fulvestrant
ERα in MCF7 cells, sequence (P03372 whole entry): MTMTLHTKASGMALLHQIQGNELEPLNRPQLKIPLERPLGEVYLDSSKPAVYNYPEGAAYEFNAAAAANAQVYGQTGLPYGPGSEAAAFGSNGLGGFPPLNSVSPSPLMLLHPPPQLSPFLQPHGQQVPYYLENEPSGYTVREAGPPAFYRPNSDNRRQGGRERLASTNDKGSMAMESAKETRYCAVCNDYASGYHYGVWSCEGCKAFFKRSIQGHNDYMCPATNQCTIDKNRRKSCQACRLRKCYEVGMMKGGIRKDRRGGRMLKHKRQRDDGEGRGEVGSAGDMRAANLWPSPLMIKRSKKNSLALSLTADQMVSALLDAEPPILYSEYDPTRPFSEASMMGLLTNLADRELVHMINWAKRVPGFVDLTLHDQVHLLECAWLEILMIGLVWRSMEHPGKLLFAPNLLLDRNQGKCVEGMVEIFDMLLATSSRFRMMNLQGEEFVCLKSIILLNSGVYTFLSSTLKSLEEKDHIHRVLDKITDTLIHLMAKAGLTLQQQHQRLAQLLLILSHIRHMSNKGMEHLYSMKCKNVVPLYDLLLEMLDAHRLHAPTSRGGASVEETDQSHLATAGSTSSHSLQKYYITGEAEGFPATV
Method in brief: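 Steps: seed MCF7 in phenol red-free medium containing 5% charcoal-dextran stripped FBS; next day add compound, final 3–0.000018 μM; after 4 h fix with 5% formalin plus 0.1% Triton; stain ERα overnight, then secondary at 37 °C for 60 min with Syto-64 at 2 μM; scan green and red intensities.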

[4] = molecular target: His6-ERα298-554 D538G mutant (ERα ligand-binding domain) (Homo sapiens (Human), UniProt P03372, D538G); assay: Test A: biochemical antagonist activity, LanthaScreen TR-FRET ERα coactivator assay, D538G mutant; conditions: read-out: Antagonism D538G IC50
His6-ERα298-554 D538G mutant (ERα ligand-binding domain), sequence (P03372 298-554 D538G): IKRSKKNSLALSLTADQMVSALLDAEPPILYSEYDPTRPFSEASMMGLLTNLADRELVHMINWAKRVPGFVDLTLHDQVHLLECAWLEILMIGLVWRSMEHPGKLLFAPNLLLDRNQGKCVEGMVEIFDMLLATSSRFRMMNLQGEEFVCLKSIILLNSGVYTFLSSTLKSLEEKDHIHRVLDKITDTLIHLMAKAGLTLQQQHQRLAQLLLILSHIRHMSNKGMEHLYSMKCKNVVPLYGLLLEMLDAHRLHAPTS
Method in brief: (§7)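 His6-ERα LBD (0.5 nM) with 0.5 nM Tb-anti-His6 antibody, 250 nM PGC1a peptide and 3 nM (or 10 nM) estradiol in 100 mM potassium phosphate pH 7.4 with 5 mM DTT, incubated overnight at room temperature with compound.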

[5] = system: MCF7 cells (breast tumor cells) WT; assay: Test B: cell proliferation/viability assay (CellTiter-Glo) on MCF7 WT; type: cell-based; conditions: Homo sapiens, MCF7, 168 h, 7 days of compound exposure
Protocol: as §1, §2
The measurements of the viability were made using a breast cancer cell viability assay as described hereunder. […]
as §5, §6

[6] = molecular target: His6-ERα298-554 WT (ERα ligand-binding domain) (Homo sapiens (Human), UniProt P03372); assay: Test A: biochemical antagonist activity, LanthaScreen TR-FRET ERα coactivator assay, WT; conditions: read-out: Antagonism WT IC50
His6-ERα298-554 WT (ERα ligand-binding domain), sequence (P03372 298-554): as the sequence (P03372 298-554 D538G) above, with G241D counted along it
Method in brief: as §7

[7] = molecular target: His6-ERα298-554 Y537S mutant (ERα ligand-binding domain) (Homo sapiens (Human), UniProt P03372, Y537S); assay: Test A: biochemical antagonist activity, LanthaScreen TR-FRET ERα coactivator assay, Y537S mutant; conditions: read-out: Antagonism Y537S IC50
His6-ERα298-554 Y537S mutant (ERα ligand-binding domain), sequence (P03372 298-554 Y537S): as the sequence (P03372 298-554 D538G) above, with Y240S, G241D counted along it
Method in brief: as §7

[8] = asterisk (*): protocol using 10 nM estradiol

| SMILES | IC50 [1] [nM] | IC50 [2] [nM] | DC50 [3] [nM] | % Degradation at 3 μM [3] [%] | IC50 [4, 8] [nM] | IC50 [5] [nM] | IC50 [6, 8] [nM] | IC50 [7, 8] [nM] | IC50 ([4]; protocol with 3 nM estradiol) [nM] | IC50 ([6]; protocol with 3 nM estradiol) [nM] | IC50 ([7]; protocol with 3 nM estradiol) [nM] |
| --- | --- | --- | --- | --- | --- | --- | --- | --- | --- | --- | --- |
| Cc1ccc(C2=C(c3ccc(O[C@H]4CCN(CCCF)C4)cc3)c3ccc(C(=O)O)cc3SC2)c(F)c1 [Example 25, 3-(2-fluoro-4-methyl-phenyl)-4-[4-[(3S)-1-(3-fluoropropyl)pyrrolidin-3-yl]oxyphenyl]-2H-thiochromene-7-carboxylic acid] | 31 | 160 | 19 | 93 | > 4000 | 16 | 1420 | > 4000 |  |  |  |
| CCOc1ccc(C2=C(c3ccc(O[C@H]4CCN(CCCF)C4)cc3)c3ccc(O)cc3SC2)c(F)c1 [Example 26, 3-(4-ethoxy-2-fluoro-phenyl)-4-[4-[(3S)-1-(3-fluoropropyl)pyrrolidin-3-yl]oxyphenyl]-2H-thiochromen-7-ol] | 2 | 10 | 0.8 | 90 |  | 0.9 |  |  | 67 | 3 | 39 |
| CCOc1ccc(C2=C(c3ccc(O[C@H]4CCN(CCCF)C4)cc3)c3ccc(O)cc3SC2)c(F)n1 [Example 27, 3-(6-ethoxy-2-fluoro-3-pyridyl)-4-[4-[(3S)-1-(3-fluoropropyl)pyrrolidin-3-yl]oxyphenyl]-2H-thiochromen-7-ol] | 2 | 6 | 0.6 | 94 | 38 | 0.4 | 2 | 21 |  |  |  |
| Oc1ccc2c(c1)SCC(c1ccc3c(c1)OCCO3)=C2c1ccc(O[C@H]2CCN(CCCF)C2)cc1 [Example 28, 3-(2,3-dihydro-1,4-benzodioxin-6-yl)-4-[4-[(3S)-1-(3-fluoropropyl)pyrrolidin-3-yl]oxyphenyl]-2H-thiochromen-7-ol] | 2 | 11 | 0.3 | 80 | 68 | 0.7 | 4 | 41 |  |  |  |
| CC1(C)Cc2cc(C3=C(c4ccc(O[C@H]5CCN(CCCF)C5)cc4)c4ccc(O)cc4SC3)ccc2N1 [Example 29, 3-(2,2-dimethylindolin-5-yl)-4-[4-[(3S)-1-(3-fluoropropyl)pyrrolidin-3-yl]oxyphenyl]-2H-thiochromen-7-ol] | 0.9 | 6 | 0.2 | 92 | 240 | 0.4 | 14 | 130 |  |  |  |
| Oc1ccc2c(c1)SCC(c1ccc(OC(F)F)c(F)c1)=C2c1ccc(O[C@H]2CCN(CCCF)C2)cc1 [Example 30, 3-[4-(difluoromethoxy)-3-fluoro-phenyl]-4-[4-[(3S)-1-(3-fluoropropyl)pyrrolidin-3-yl]oxyphenyl]-2H-thiochromen-7-ol] | 2 | 16 | 1 | 91 |  | 1 |  |  | 694 | 34 | 415 |
| Oc1ccc2c(c1)SCC(c1ccc3c(c1)OC(F)(F)O3)=C2c1ccc(O[C@H]2CCN(CCCF)C2)cc1 [Example 31, 3-(2,2-difluoro-1,3-benzodioxol-5-yl)-4-[4-[(3S)-1-(3-fluoropropyl)pyrrolidin-3-yl]oxyphenyl]-2H-thiochromen-7-ol] | 1 | 6 | 0.7 | 86 |  | 0.4 |  |  | 101 | 5 | 59 |
| CC1(C)Cc2cc(C3=C(c4ccc(O[C@H]5CCN(CCCF)C5)cc4)c4ccc(O)cc4SC3)ccc2O1 [Example 32, 3-(2,2-dimethyl-3H-benzofuran-5-yl)-4-[4-[(3S)-1-(3-fluoropropyl)pyrrolidin-3-yl]oxyphenyl]-2H-thiochromen-7-ol] | 1 | 6 | 0.8 | 87 | 314 | 0.4 | 19 | 168 |  |  |  |
| CC(C)(O)c1ccc(C2=C(c3ccc(O[C@H]4CCN(CCCF)C4)cc3)c3ccc(O)cc3SC2)c(F)c1 [Example 33, 3-[2-fluoro-4-(1-hydroxy-1-methyl-ethyl)phenyl]-4-[4-[(3S)-1-(3-fluoropropyl)pyrrolidin-3-yl]oxyphenyl]-2H-thiochromen-7-ol] | 2 | 22 | 1 | 84 | 1690 | 4 | 66 | 596 |  |  |  |
| [2H]C([2H])([2H])Oc1ccc(C2=C(c3ccc(O[C@H]4CCN(CCCF)C4)cc3)c3ccc(O)cc3SC2)c(F)c1 [Example 34, 4-[4-[(3S)-1-(3-fluoropropyl)pyrrolidin-3-yl]oxyphenyl]-3-[2-fluoro-4-(trideuteriomethoxy)phenyl]-2H-thiochromen-7-ol] | 0.5 | 4 | 0.4 | 85 | 83 | 0.5 | 4 | 46 |  |  |  |
| Oc1ccc2c(c1)SCC(c1ccc(OC(F)F)cc1F)=C2c1ccc(O[C@H]2CCN(CCCF)C2)cc1 [Example 35, 3-[4-(difluoromethoxy)-2-fluoro-phenyl]-4-[4-[(3S)-1-(3-fluoropropyl)pyrrolidin-3-yl]oxyphenyl]-2H-thiochromen-7-ol] | 0.3 | 2 | 1 | 89 | 421 | 0.2 | 16 | 220 |  |  |  |
| CCOc1ccc(C2=C(c3ccc(O[C@H]4CCN(CCCF)C4)cc3)c3ccc(O)cc3SC2)c(Cl)c1 [Example 36, 3-(2-chloro-4-ethoxy-phenyl)-4-[4-[(3S)-1-(3-fluoropropyl)pyrrolidin-3-yl]oxyphenyl]-2H-thiochromen-7-ol] | 0.5 | 3 | 0.2 | 83 | 257 | 0.5 | 11 | 154 |  |  |  |
| Oc1ccc2c(c1)SCC(c1ccc(OC(F)(F)F)cc1F)=C2c1ccc(O[C@H]2CCN(CCCF)C2)cc1 [Example 37, 4-[4-[(3S)-1-(3-fluoropropyl)pyrrolidin-3-yl]oxyphenyl]-3-[2-fluoro-4-(trifluoromethoxy)phenyl]-2H-thiochromen-7-ol] | 0.6 | 4 | 3 | 83 |  | 0.6 |  |  | 745 | 41 | 475 |
| O=C1COc2ccc(C3=C(c4ccc(O[C@H]5CCN(CCCF)C5)cc4)c4ccc(O)cc4SC3)cc2N1 [Example 38, 6-[4-[4-[(3S)-1-(3-fluoropropyl)pyrrolidin-3-yl]oxyphenyl]-7-hydroxy-2H-thiochromen-3-yl]-4H-1,4-benzoxazin-3-one] | 16 | > 999 | 12 | 86 | > 4000 | 12 | 604 | 3710 |  |  |  |
